# Test system: IL-2 promoter/enhancer
# Assay: IL-2 promoter assay (luciferase reporter in Jurkat J.1F/C6 cells)
# Type: cell-based
# Details: Homo sapiens; J.1F/C6 Jurkat cell line, IL-2 promoter luciferase reporter; read-out: IC50, inhibition of luciferase activity induced by ionomycin and PMA
# Source text: The IL-2 promoter assay measures transcriptional activation of a luciferase reporter gene which has been placed under control of the IL-2 promoter/enhancer. All the known regulatory features of the IL2gene are contained within a 300 bp sequence immediately upstream of the open reading frame. The region −328 to +35 relative to the transcription start site of the IL-2 gene is obtained by RT-PCR of human genomic DNA and is subcloned into the promoterless luciferase reporter vector pGL2-Basic (Promega). The resulting construct, pIL2P-luc, and a vector containing a neomycin resistance gene, pcDNA/Neo (Invitrogen), are linearized and stably transfected into Jurkat cells (a human T cell line) by electroporation. […] For screening compounds, the cells are pelleted by centrifugation, washed once with PBS, resuspended in RPMI (phenol red-free) containing 5% FBS, and dispensed into 96-well, white microtiter plates (Packard) at 50,000 cells/well. The cells are pre-incubated with compounds (1 μg/ml) for 15 min prior to addition of ionomycin (1 μg/ml) and PMA (10 ng/ml) in a final volume of 100 μl. Following a 5 hr incubation at 37° C. in a humidified incubator, 100 μl of Luc-Lite lysis buffer/luciferase assay buffer (Promega) is added and luminescence measured using a Packard TopCount scintillation counter/luminometer.
row,IC50 [nM],Structure (SMILES)
1,0.3,C=CC[C@@H]1/C=C(\C)C[C@H](C)C[C@H](OC)[C@H]2O[C@@](O)(C(=O)C(=O)N3CCCC[C@H]3C(=O)O[C@H](/C(C)=C/[C@@H]3CC[C@@H](O)[C@H](OC)C3)[C@H](C)[C@@H](O)CC1=O)[C@H](C)C[C@@H]2OC [FK506]

# Test system: not given
# Assay: not given
# Details: not given
row,Structure (SMILES),melting point [°C]
1,FC(F)(F)c1cc(C(F)(F)F)n(-c2ccc(Nc3nc4ccccc4[nH]3)cc2)n1 [Example 644],220 to 222
2,FC(F)(F)c1cc(C(F)(F)F)n(-c2ccc(Nc3nccc4ccccc34)cc2)n1 [Example 648],205 to 220
3,FC(F)(F)c1cc(Cl)n(-c2ccc(Nc3nccc4ccccc34)cc2)n1 [Example 683],244 to 254
4,Cc1cc(C(F)(F)F)nn1-c1ccc(NC(=O)C2CCCC2)cc1 [Example 780],176 to 178
5,CSc1cc(-c2ccco2)nn1-c1ccc(NC(=O)c2ccc(Cl)cc2)cc1 [Example 1077],176 to 178
6,C[S+]([O-])c1cc(-c2ccco2)nn1-c1ccc(NC(=O)c2ccc(Cl)cc2)cc1 (stereo not drawn) [Example 1101],110
7,CN(C)Cc1cc(C(F)(F)F)n(-c2ccc(NC(=O)c3ccc(Cl)cc3)cc2)n1 [Example 1128],177 to 178
8,CCc1cc(C(C)C)nn1-c1ccc(Nc2ncccc2C#N)cc1 [Example 1160],123 to 124
9,CCc1cc(C(C)C)nn1-c1ccc(NC(=O)c2c(C)noc2C)cc1 [Example 1200],173 to 175
10,CCc1cc(C(C)C)nn1-c1ccc(NCc2c(C)noc2C)cc1 [Example 1201],87 to 88
11,CCc1cc(C(F)(F)F)nn1-c1ccc(NC(=O)c2c(C)ncn2C)cc1 [Example 1207],179 to 182
12,CCc1cc(C(F)(F)F)nn1-c1ccc(NCc2sccc2C)cc1 [Example 1247],93 to 95
13,CCc1cc(C(F)(F)F)nn1-c1ccc(NCc2ccc(C)s2)cc1 [Example 1248],87 to 89
14,CCc1cc(C(C)C)nn1-c1ccc(NC(=O)c2cnccn2)cc1 [Example 1312],169 to 171

# The remaining lines, values ahead:
row,melting point [°C],Structure (SMILES)
1,243 to 245,O=C(Nc1ccc(-n2nc(C(F)(F)F)cc2C(F)(F)F)cc1)c1ccccc1 [Example 538]
2,175 to 176,CC(=O)Nc1ccc(-n2nc(C(F)(F)F)cc2C(F)(F)F)cc1 [Example 547]
3,89 to 90,FC(F)(F)c1cc(C(F)(F)F)n(-c2ccc(NCc3ccc(Cl)cc3)cc2)n1 [Example 548]
4,107 to 109,CCCCCC(=O)Nc1ccc(-n2nc(C(F)(F)F)cc2C(F)(F)F)cc1 [Example 584]
5,54,CCNc1ccc(-n2nc(C(F)(F)F)cc2C(F)(F)F)cc1 [Example 613]
6,231 to 233,O=C(Nc1ccc(-n2nc(C(F)(F)F)cc2C(F)(F)F)cc1)C1CCCNC1 (stereo not drawn) [Example 688]
7,188 to 189,O=C(Nc1ccc(-n2nc(C(F)(F)F)cc2C(F)(F)F)cc1)c1cnccn1 [Example 698]
8,204 to 205,O=C(Nc1ccc(-n2nc(C(F)(F)F)cc2C(F)(F)F)cc1)c1ccnc2ccccc12 [Example 711]
9,196,O=C(Nc1ccc(-n2nc(C(F)(F)F)cc2C(F)(F)F)cc1)c1cnc2ccccc2n1 [Example 712]
10,185 to 186,O=C(Nc1ccc(-n2nc(C(F)(F)F)cc2C(F)(F)F)cc1)N1CCOCC1 [Example 726]
11,247,N#Cc1ccc(Nc2ccc(-n3nc(C(F)(F)F)cc3C(F)(F)F)cc2)cc1 [Example 864]
12,218 to 219,FC(F)(F)c1cc(C(F)(F)F)n(-c2ccc(Nc3ccncn3)cc2)n1 [Example 886]
